Source: patent US20170066795A1, “SOLID PRODRUG FORMS OF 2'-CHLORO-2'-METHYL URIDINE FOR HCV” (IDENIX PHARMACEUTICALS LLC, priority 2014, published 2017)

Assay: Example 4 Group A: safety (adverse events) in healthy volunteers
Assay type: in vivo, human
Description: Six sequential cohorts of 8 health volunteers per cohort were randomized via a computer-generated randomization list in the ratio of 2:6. Two of the healthy volunteers (HV) received placebo and the remaining six received Compound I under fasted conditions at single ascending doses of 10, 25, 50, 150, or 300 mg, or multiple doses at 300 mg QD for 7 days (below, “Group A”).
For Groups A and B, dosing occurred between approximately 08:00 AM and 10:00 AM on each dosing day. Dosing was fasted for all subjects in Groups A and B. For fasted dosing, subjects observed a fasting period of approximately 10 hours prior to each dose and for an additional 4 hours post-dose.
Safety measurements included clinical history, routine laboratory evaluation, physical examination, 12-lead ECG, vital signs, adverse event (AE) assessment.

SMILES: CC(C)OC(=O)[C@@H](C)N[P@@](=O)(OC[C@H]1O[C@@H](n2ccc(=O)[nH]c2=O)[C@](C)(Cl)[C@@H]1O)Oc1ccccc1 [Compound I]
- Subjects with AE (50 mg single dose (n = 6)): 2 (33.3) n, %
- Adverse event: Abdominal discomfort (150 mg (n = 6)): 1 (16.7) n, %
- Adverse event: Abnormal feces (150 mg (n = 6)): 2 (33.3) n, %
- Adverse event: Constipation (150 mg (n = 6)): 0 n, %
- Adverse event: Dizziness (150 mg (n = 6)): 2 (33.3) n, %
- Adverse event: Dry mouth (150 mg (n = 6)): 1 (16.7) n, %
- Adverse event: Dry skin (150 mg (n = 6)): 0 n, %
- Adverse event: Erythema (150 mg (n = 6)): 1 (16.7) n, %
- Adverse event: Flushing (150 mg (n = 6)): 1 (16.7) n, %
- Adverse event: Headache (150 mg (n = 6)): 1 (16.7) n, %
- Adverse event: Menstruation delayed (150 mg (n = 6)): 0 n, %
- Adverse event: Musculoskeletal stiffness (150 mg (n = 6)): 0 n, %
- Adverse event: Palpitations (150 mg (n = 6)): 0 n, %
- Adverse event: Pancreatic enzymes increased (150 mg (n = 6)): 0 n, %
- Adverse event: Procedural nausea (150 mg (n = 6)): 0 n, %
- Adverse event: Vessel puncture site bruise (150 mg (n = 6)): 0 n, %
- Adverse event: Vessel puncture site pain (150 mg (n = 6)): 0 n, %
- Adverse event: Vomiting (150 mg (n = 6)): 1 (16.7) n, %
- Subjects with AE (150 mg (n = 6)): 4 (66.7) n, %
- Adverse event: Abdominal discomfort (300 mg QD x 7 days (n = 6)): 0 n, %
- Adverse event: Abnormal feces (300 mg QD x 7 days (n = 6)): 0 n, %
- Adverse event: Constipation (300 mg QD x 7 days (n = 6)): 0 n, %
- Adverse event: Dizziness (300 mg QD x 7 days (n = 6)): 0 n, %
- Adverse event: Dry mouth (300 mg QD x 7 days (n = 6)): 0 n, %
- Adverse event: Dry skin (300 mg QD x 7 days (n = 6)): 0 n, %
- Adverse event: Erythema (300 mg QD x 7 days (n = 6)): 0 n, %
- Adverse event: Flushing (300 mg QD x 7 days (n = 6)): 0 n, %
- Adverse event: Headache (300 mg QD x 7 days (n = 6)): 0 n, %
- Adverse event: Menstruation delayed (300 mg QD x 7 days (n = 6)): 1 (16.7) n, %
- Adverse event: Musculoskeletal stiffness (300 mg QD x 7 days (n = 6)): 0 n, %
- Adverse event: Nausea (300 mg QD x 7 days (n = 6)): 0 n, %
- Adverse event: Palpitations (300 mg QD x 7 days (n = 6)): 1 (16.7) n, %
- Adverse event: Pancreatic enzymes increased (300 mg QD x 7 days (n = 6)): 0 n, %
- Adverse event: Procedural nausea (300 mg QD x 7 days (n = 6)): 0 n, %
- Adverse event: Vessel puncture site bruise (300 mg QD x 7 days (n = 6)): 1 (16.7) n, %
- Adverse event: Vessel puncture site pain (300 mg QD x 7 days (n = 6)): 0 n, %
- Adverse event: Vomiting (300 mg QD x 7 days (n = 6)): 0 n, %
- Subjects with AE (300 mg QD x 7 days (n = 6)): 2 (33.3) n, %
- Adverse event: Abdominal discomfort (300 mg single dose (n = 6)): 0 n, %
- Adverse event: Abnormal feces (300 mg single dose (n = 6)): 0 n, %
- Adverse event: Constipation (300 mg single dose (n = 6)): 0 n, %
- Adverse event: Dizziness (300 mg single dose (n = 6)): 1 (16.7) n, %
- Adverse event: Dry mouth (300 mg single dose (n = 6)): 0 n, %
- Adverse event: Dry skin (300 mg single dose (n = 6)): 0 n, %
- Adverse event: Erythema (300 mg single dose (n = 6)): 0 n, %
- Adverse event: Flushing (300 mg single dose (n = 6)): 0 n, %
- Adverse event: Headache (300 mg single dose (n = 6)): 1 (16.7) n, %
- Adverse event: Menstruation delayed (300 mg single dose (n = 6)): 0 n, %
- Adverse event: Musculoskeletal stiffness (300 mg single dose (n = 6)): 1 (16.7) n, %
- Adverse event: Nausea (300 mg single dose (n = 6)): 1 (16.7) n, %
- Adverse event: Palpitations (300 mg single dose (n = 6)): 0 n, %
- Adverse event: Pancreatic enzymes increased (300 mg single dose (n = 6)): 0 n, %
- Adverse event: Procedural nausea (300 mg single dose (n = 6)): 0 n, %
- Adverse event: Vessel puncture site bruise (300 mg single dose (n = 6)): 1 (16.7) n, %
- Adverse event: Vessel puncture site pain (300 mg single dose (n = 6)): 0 n, %
- Adverse event: Vomiting (300 mg single dose (n = 6)): 0 n, %
- Subjects with AE (300 mg single dose (n = 6)): 3 (50.0) n, %
